Results: patent publication US11925618B2, “Pharmaceutical combination for the treatment of cancer” (Piramal Enterprises Limited, priority 2014, dated 2024)
Like-named read-outs stand apart in the source and are kept apart here.

How the values were obtained:
Format in all cases: cell-based
[1] = tested on: Thioredoxin Reductase (TrxR); test: TrxR activity assay (DTNB reduction) in FaDu cell lysates; details: FaDu cells, DTNB reduction with or without ATM
Experimental: • (i) Cell lines: The cell lines of FaDu for head and neck squamous cell carcinomas (HNSCC) obtained from ATCC (American Tissue type Culture Collection), USA. • (ii) DTNB: Dithio nitro benzoic acid • (iii) ATM: Aurothiomalate
TrxR assay was conducted in six-well plates with 1M cells per well. The cells were treated with various concentrations of auranofin or voruciclib and in combination of both. The TrxR activity was measured in cell lysates using DTNB (Dithio nitro benzoic acid). The DINS was reduced to TNB (Thio nito benzoic acid) with or without a specific TrxR inhibitor, Aurothiomalate (ATM). The TrxR activity was calculated based on the difference in slope obtained from linear kinetic of DTNB reduction with or without ATM treatment.
The effect of auranofin and voruciclib combination on TrxR activity assay in FaDu cells are depicted in FIG. 16. The data is represented as mean±SEM (N=2) of % TrxR activity (Y-axis) and various concentration (μM) of Auranofin or voruciclib or combination of both (X-axis); PC—Positive control, C—Vehicle control.

FaDu cell lines = test: CGI (cell growth inhibition, propidium iodide) assay in FaDu cell lines
Experimental: (§1) The media was removed from the flask containing cells and 2-3 mL of sterile 1×DPBS was added to the flask. The DPBS was then removed from the flask and 2 mL of trypsin was added to the flask. The flask was kept in the incubator for a few seconds. The cells were then checked whether dislodged and if dislodged, 2 mL of serum was added to the flask. To the flask was then added 5-6 mL of media and swirled. The media was collected from the flask and centrifuged at 600 rpm for 10 min.
(§2) The supernatant solution was decanted and the pellet was re-suspended in 10 mL of media. To a 1.7 mL MCT; 50 μL of tryphan blue, 40 μL of media and 10 μL of cell suspension were added. The solution was then vortexed and 10 μL of this solution was loaded on a hemocytometer. The cells were counted in hemocytometer chambers and further calculated to get a count of ≥3000 cells/well/200 μL.
(§3) The cell stock was prepared using respective media and FBS, and 200 μL of the cell stock was added to each well (except media control wells) of white delta treated 96 well plate using a multi-channel pipette. To the media control wells, 200 μL of media was added. The plates were then incubated at 37° C. for 12-16 h.
(§4) The drug (the therapeutic agent) i.e. the CDK inhibitor and the antioxidant enzyme inhibitor were separately diluted to 10 folds using DMSO. The media of the plates was changed before the addition of drug to the plates and these plates were then placed in the incubator. 1 μL of CDK inhibitor and antioxidant enzyme inhibitor was added simultaneously to the respective wells and placed on the plate shaker for 15-30 mins. The plates were then placed back in incubator for 72 h or the time of incubation as decided.
(§5) 200 μL of media from each well was gently aspirated and then added 100 μL of 1×DPBS at room temperature to each well. The working stock of PI (stock 1 mg/mL) was prepared using 140 μL of PI and 20 mL of 1×DPBS for one plate. Then 1×DPBS was removed from the wells and 200 μL of PI working stock was added to each well. These plates were kept in dark for 5-10 min at room temperature on a shaker, after which the plates were stored at −80° C. until reading of the plate.
(§6) The plate was read in Spectramax fluorescence excitation maximum is 535 nm and the emission maximum is 617 nm.
Cell lines: The cell lines of FaDu for head and neck squamous cell carcinomas (HNSCC) obtained from ATCC (American Tissue type Culture Collection), USA were used in this study.
The analysis of combination index (CI) and cell growth inhibition was carried out using CGI assay method. […]
The combination studies of CDK inhibitor with TrxR inhibitor, auranofin was carried out at 12, 24, 48 and 72 h and the time point for which optimum synergy was obtained was determined. […]

[2] = tested on: ROS production in FaDu cells; test: Cellular ROS detection assay using DCFDA; details: single agent
Experimental: as §1
as §2, with “≥25000” for “≥3000”, “μL. […]” for “μL.”
The plate was read in Spectamax fluoroscence excitation maximum is 485 nm and the emission maximum is 535 nm. […]
The […] cells were treated with various concentrations (μM) of auranofin or voruciclib alone or in combination. […] The treated FaDu/MDAMB-431 cells were analyzed on a fluorescent plate reader vis-a-vis the cells of positive control which were treated with 50 μM tert-butyl hydrogen peroxide (TBHP). […]

MDA-MB-231 cell lines = test: CGI (cell growth inhibition, propidium iodide) assay in MDA-MB-231 cell lines; details: determined at 72 h
Experimental: as §1, §2, §3, §4, §5, §6
Cell lines: The cell lines of MDA-MB-231 for triple negative breast cancer (TNBC) obtained from ATCC (American Tissue type Culture Collection), USA were used in this study.
The analysis of combination index and cell growth inhibition was carried out using CGI assay method. […]
The combination studies of CDK inhibitor with each of the TrxR inhibitors, auranofin, ebselen and ATO was carried out at 12, 24, 48 and 72 h and the time point for which optimum synergy was obtained was determined. […]

CC(=O)OC[C@H]1O[C@@H]([S-])[C@H](OC(C)=O)[C@@H](OC(C)=O)[C@@H]1OC(C)=O.CCP(CC)CC.[Au+] [Auranofin]
effect on TrxR activity [1]: concentration dependent reduction
EC50 (FaDu cell lines; FaDu cell lines, determined at 48 h, read-out: EC50): 0.15 µM
increase in ROS level as compared to untreated control [2]: ~100%
EC50 (MDA-MB-231 cell lines): 0.15 µM

O=c1c2ccccc2[se]n1-c1ccccc1 [Ebselen]
EC50 (FaDu cell lines; Homo sapiens, FaDu, 72 h): 4.02 µM
EC50 (MDA-MB-231 cell lines; Homo sapiens): 3.89 µM

CN1CC[C@@H](c2c(O)cc(O)c3c(=O)cc(-c4ccc(C(F)(F)F)cc4Cl)oc23)[C@@H]1CO.Cl [Voruciclib, (+)-2-[2-Chloro-4-(trifluoromethyl)phenyl]-5,7-dihydroxy-8-[(2R,3S)-2-(hydroxymethyl)-1-methylpyrrolidin-3-yl]-4H-chromen-4-one hydrochloride]
effect on TrxR activity [1]: no effect
EC50 (FaDu cell lines; Homo sapiens, FaDu cell lines, determined at 48 h, read-out: EC50): 2.04 µM
increase in ROS level as compared to untreated control [2]: ~80%
EC50 (MDA-MB-231 cell lines; Homo sapiens): 2.3 µM

Arsenic trioxide [ATO]
EC50 (FaDu cell lines; FaDu cell lines, determined at 72 h, read-out: EC50): 4.87 µM
EC50 (MDA-MB-231 cell lines): 5.19 µM
